According to patent US9416143B2, “Griseofulvin derivatives” (PIERRE FABRE MEDICAMENT, priority 2012, dated 2016):
Where two headings read alike, the source gives them in different places.

Experiments:
Assay type in all cases: cell-based
[1] = tested on: SCC114 line (oral squamous carcinoma cell line); assay: Cell proliferation (ATPLite) on SCC114 line; conditions: read 72 hours after addition
Protocol: (§1) The lines N1E115 (ATCC, CRL2263), MDA-MB-231 (ATCC, HTB26) and HSC-1 (Health Science Research Resources Bank, JCRB1015) were cultured in DMEM medium (Dulbecco's Modified Eagle Medium) supplemented with 2 mM of L-Glutamine (Sigma, G7513) and 10% foetal calf serum (Hyclone, SH30109.03) or 20% for the HSC-1 cells. The HCC-1937 (ATCC, CRL2336) and A549 (ATCC, CCL185) lines were cultured in RPMI medium (Roswell Park Memorial Institute Medium) supplemented with 10% foetal calf serum and 2 mM of L-Glutamine. Finally, the SCC114 (DSMZ, ACC662) line was cultured in MEM medium (Minimum Essential Medium Eagle) supplemented with 10% foetal calf serum and 2 mM of L-Glutamine. Initially, in 96-well plates (Perkin Elmer, 6005668), the cells were seeded in their respective culture media with 750 cells per well for N1E115; 1000 cells per well for SCC114 and A549; 2000 cells per well for HCC-1937 and HSC-1; 2500 cells per well for MDA-MB-231. Cascade dilution of each compound was performed in dimethylsulfoxide (DMSO) (Sigma, D8418) from 10 mM stock solutions in 100% DMSO. Each of the dilutions was added to the cells 24 hours after seeding. Under these conditions the final solvent concentration was 0.1% DMSO. Reading of cell proliferation was conducted 72 hours after addition of products with the ATPLite kit (Perkin Elmer, 6016947) and following the manufacturer's directions except in the case of the HCC-1937 line for which this reading was carried out 48 hours after treatment. Analysis of proliferation results was performed by comparing with conditions in which solely the vehicle was added to the cells. The dose-response curves obtained were analysed using Prism 4.03 software (GraphPad Software Inc.) to determine the concentration of each compound allowing 50% inhibition of cell proliferation (IC50).
(§2) As examples, the cytotoxic properties of some compounds of the invention evaluated on the lines A549 (lung cancer cell line), MDA-MB-231 line (mammary adenocarcinoma cell line), N1E115 (mouse brain neuroblastoma cell line), HCC-1937 line (primary ductam breast carcinoma cell line), HSC-1 (cutaneous squamous carcinoma cell line) and SCC114 line (oral squamous carcinoma cell line) are reported in Table 1, as compared with griseofulvin used as control product. The concentration values are expressed in micromolar units (μM).

[2] = tested on: HCC-1937 line (primary ductam breast carcinoma cell line); assay: Cell proliferation (ATPLite) on HCC-1937 line; conditions: read 48 hours after treatment
Protocol: as §1, §2

[3] = tested on: HSC-1 (cutaneous squamous carcinoma cell line); assay: Cell proliferation (ATPLite) on HSC-1 line; conditions: 50% inhibition of cell proliferation, read 72 hours after addition
Protocol: as §1, §2

[4] = tested on: MDA-MB-231 line (mammary adenocarcinoma cell line); assay: Cell proliferation (ATPLite) on MDA-MB-231 line; conditions: read 72 hours after addition
Protocol: as §1, §2

[5] = tested on: A549 (lung cancer cell line); assay: Cell proliferation (ATPLite) on A549 line; conditions: read 72 hours after addition
Protocol: as §1, §2

[6] = tested on: N1E115 (mouse brain neuroblastoma cell line); assay: Cell proliferation (ATPLite) on N1E115 line; conditions: 50% inhibition of cell proliferation, read 72 hours after addition, read-out: IC50 (μM) N1E-115
Protocol: as §1, §2

[7] = SCC114, 50% inhibition of cell proliferation
[8] = Homo sapiens, HCC1937, 50% inhibition of cell proliferation
[9] = Homo sapiens, MDA-MB-231, 50% inhibition of cell proliferation
[10] = 50% inhibition of cell proliferation
[11] = 50% inhibition of cell proliferation, read-out: IC50 (μM) HCC1937

Structure (SMILES)	IC50 [1, 7]	IC50 [2, 8]	IC50 [3]	IC50 [4, 9]	IC50 [1, 10]	IC50 [2, 11]	IC50 [5, 10]	IC50 [6]	IC50 [4, 10]	IC50 ([5]; Homo sapiens, A549, 50% inhibition of cell proliferation)
COC(=O)C1=C[C@H](c2ccsc2)C2=C(C[C@@H](C)[C@]3(Oc4c(Cl)c(OC)cc(OC)c4C3=O)C2=O)N1 [compound 165, (2S,4′S,7′R)-methyl 7-chloro-4,6-dimethoxy-7′-methyl-3,5′-dioxo-4′-(thiophen-3-yl)-4′,5′,7′,8′-tetrahydro-1′H,3H-spiro[benzofuran-2,6′-quinoline]-2′-carboxylate]	0.23 µM	> 10 µM	0.5 µM	0.17 µM	–	–	–	–	–	–
COc1cc(OC)c2c(c1Cl)O[C@]1(C2=O)C2=C(C[C@@](CCO)(c3ccccc3)O2)C(=O)C[C@H]1C [compound 46, (2R,2′S,6R)-7′-chloro-2-(2-hydroxyethyl)-4′,6′-dimethoxy-6-methyl-2-phenyl-5,6-dihydro-2H,3′H-2,7′-spirobi[benzofuran]-3′,4(3H)-dione]	–	–	0.79 µM	–	0.57 µM	> 10 µM	0.86 µM	0.22 µM	–	–
COc1cc(OC)c2c(c1Cl)O[C@]1(C2=O)C(=O)c2c(nn(C)c2-c2ccccc2Cl)C[C@H]1C [compound 126, (2S,3′R,6′R)-7-chloro-3′-(2-chlorophenyl)-4,6-dimethoxy-2′,6′-dimethyl-6′,7′-dihydro-3H-spiro[benzofuran-2,5′-indazole]-3,4′(2′H)-dione]	–	–	2.3 µM	–	0.73 µM	–	–	–	–	–
COc1cc(OC)c2c(c1Cl)O[C@]1(C2=O)C2=C(C[C@](C)(c3ccccc3)O2)C(=O)C[C@H]1C [compound 5, (2R,2′S,6R)-7′-chloro-4′,6′-dimethoxy-2,6-dimethyl-2-phenyl-5,6-dihydro-2H,3′H-2,7′-spirobi[benzofuran]-3′,4(3H)-dione]	–	–	–	–	0.38 µM	> 10 µM	0.95 µM	0.25 µM	0.86 µM	–
COC(=O)c1cc(-c2ccsc2)c2c(n1)C[C@@H](C)[C@]1(Oc3c(Cl)c(OC)cc(OC)c3C1=O)C2O (stereo partly drawn) [compound 255, (2S,7′R)-methyl 7-chloro-5′-hydroxy-4,6-dimethoxy-7′-methyl-3-oxo-4′-(thiophen-3-yl)-7′,8′-dihydro-3H,5′H-spiro[benzofuran-2,6′-quinoline]-2′-carboxylate]	0.38 µM	> 10 µM	0.77 µM	0.22 µM	–	–	–	–	–	–
COc1cc(OC)c2c(c1Cl)O[C@]1(C2=O)C2=C(C[C@H](c3ccc(F)cc3)O2)C(=O)C[C@H]1C [compound 34, (2R,2′S,6R)-7′-chloro-2-(4-fluorophenyl)-4′,6′-dimethoxy-6-methyl-5,6-dihydro-2H,3′H-2,7′-spirobi[benzofuran]-3′,4(3H)-dione]	–	–	0.45 µM	–	0.21 µM	> 10 µM	0.072 µM	–	0.18 µM	–
COc1cc(OC)c2c(c1Cl)O[C@]1(C2=O)C(=O)c2c(nn(C)c2-c2ccccc2Br)C[C@H]1C [compound 130, (2S,3′S,6′R)-7-chloro-3′-(2-bromophenyl)-4,6-dimethoxy-2′,6′-dimethyl-6′,7′-dihydro-3H-spiro[benzofuran-2,5′-indazole]-3,4′(2′H)-dione]	–	–	0.25 µM	–	0.14 µM	–	–	–	–	–
COc1cc(OC)c2c(c1Cl)O[C@]1(C2=O)C(N(C)CCN(C)c2ccccn2)=CC(=O)C[C@H]1C [compound 205, (1′S,6′R)-7-chloro-4,6-dimethoxy-6′-methyl-2′-(methyl(2-(methyl(pyridin-2-yl)amino)ethyl)amino)-3H-spiro[benzofuran-2,1′-cyclohex[2]ene]-3,4′-dione]	–	–	> 10 µM	–	0.62 µM	–	9.2 µM	–	–	–
COC(=O)c1cc(-c2ccc(F)cc2)c2c(n1)C[C@@H](C)[C@]1(Oc3c(Cl)c(OC)cc(OC)c3C1=O)C2=O [compound 164, (2S,7′R)-methyl 7-chloro-4′-(4-fluorophenyl)-4,6-dimethoxy-7′-methyl-3,5′-dioxo-7′,8′-dihydro-3H,5′H-spiro[benzofuran-2,6′-quinoline]-2′-carboxylate]	0.43 µM	> 10 µM	> 10 µM	1.4 µM	–	–	–	–	–	0.45 µM
COC(=O)c1cc(-c2ccc(F)cc2)c2c(n1)C[C@@H](C)[C@]1(Oc3c(Cl)c(OC)cc(OC)c3C1=O)C2O (stereo partly drawn) [compound 256, (2S,7′R)-methyl 7-chloro-4′-(4-fluorophenyl)-5′-hydroxy-4,6-dimethoxy-7′-methyl-3-oxo-7′,8′-dihydro-3H,5′H-spiro[benzofuran-2,6′-quinoline]-2′-carboxylate]	0.51 µM	> 10 µM	0.84 µM	0.33 µM	–	–	–	–	–	–
COc1cc(OC)c2c(c1Cl)O[C@@]1(C=C([S+]([O-])Cc3ccccc3)C(=O)C[C@H]1C)C2=O (stereo partly drawn) [compound 97, (1′S,6′R)-3′-(benzylsulfinyl)-7-chloro-4,6-dimethoxy-6′-methyl-3H-spiro[benzofuran-2,1′-cyclohex[2]ene]-3,4′-dione]	–	–	0.14 µM	–	0.021 µM	–	–	–	–	–
COc1cc(OC)c2c(c1Cl)O[C@]1(C2=O)C2=C(C[C@@H](c3ccc(F)cc3)O2)C(=O)C[C@H]1C [compound 35, (2S,2′S,6R)-7′-chloro-2-(4-fluorophenyl)-4′,6′-dimethoxy-6-methyl-5,6-dihydro-2H,3′H-2,7′-spirobi[benzofuran]-3′,4(3H)-dione]	–	–	0.38 µM	–	0.17 µM	> 10 µM	–	–	0.25 µM	–
COc1cc(OC)c2c(c1Cl)O[C@@]1(C=C(S(=O)(=O)c3ccccc3)C(=O)C[C@H]1C)C2=O [compound 98, (1′S,6′R)-7-chloro-4,6-dimethoxy-6′-methyl-3′-(phenylsulfonyl)-3H-spiro[benzofuran-2,1′-cyclohex[2]ene]-3,4′-dione]	–	–	0.76 µM	–	0.41 µM	–	–	–	–	–
COc1cc(OC)c2c(c1Cl)O[C@]1(C2=O)C(O)c2c(-c3ccccc3)cc(C(=O)OC(C)C)nc2C[C@H]1C (stereo partly drawn) [compound 257, (2S,7′R)-isopropyl 7-chloro-5′-hydroxy-4,6-dimethoxy-7′-methyl-3-oxo-4′-phenyl-7′,8′-dihydro-3H,5′H-spiro[benzofuran-2,6′-quinoline]-2′-carboxylate]	0.51 µM	> 10 µM	2.4 µM	0.43 µM	–	–	–	–	–	–
COc1cc(OC)c2c(c1Cl)O[C@]1(C2=O)C(=O)c2c(nn(C)c2-c2ccccc2C(F)(F)F)C[C@H]1C [compound 135, (2S,3′S,6′R)-7-chloro-4,6-dimethoxy-2′,6′-dimethyl-3′-(2-(trifluoromethyl)phenyl)-6′,7′-dihydro-3H-spiro[benzofuran-2,5′-indazole]-3,4′(2′H)-dione]	–	–	1.3 µM	–	0.51 µM	–	–	–	–	–
COc1cc(OC)c2c(c1Cl)O[C@]1(C2=O)C2=C(C[C@](CCCCO)(c3ccccc3)O2)C(=O)C[C@H]1C [compound 14, (2 S,2′S,6R)-7′-chloro-2-(4-hydroxybutyl)-4′,6′-dimethoxy-6-methyl-2-phenyl-5,6-dihydro-2H,3′H-2,7′-spirobi[benzofuran]-3′,4(3H)-dione]	–	–	0.86 µM	–	0.74 µM	> 10 µM	0.44 µM	–	0.46 µM	–
COc1cc(OC)c2c(c1Cl)O[C@]1(C2=O)C2=C(C[C@H](c3ccccc3F)O2)C(=O)C[C@H]1C [compound 37, (2R,2′S,6R)-7′-chloro-2-(2-fluorophenyl)-4′,6′-dimethoxy-6-methyl-5,6-dihydro-2H,3′H-2,7′-spirobi[benzofuran]-3′,4(3H)-dione]	–	–	1.4 µM	–	0.47 µM	> 10 µM	–	–	0.27 µM	–
COc1cc(OC)c2c(c1Cl)O[C@]1(C2=O)C(=O)c2c(nn(C)c2-c2ccccc2Cl)C[C@H]1C [compound 115, (2S,6′R)-7-chloro-3′-(2-chlorophenyl)-4,6-dimethoxy-2′,6′-dimethyl-6′,7′-dihydro-3H-spiro[benzofuran-2,5′-indazole]-3,4′(2′H)-dione]	0.73 µM	> 10 µM	1.3 µM	0.64 µM	–	–	–	–	–	–
